Like-named read-outs stand apart in the source and are kept apart here.
Assays:
[1] = Toxicity (mice, 24 hour value); conditions: mouse, in vivo, po
Procedure: |Toxicity: (mice, 24 hour value)

Escherichia coli = assay: Activity in vivo: mice infected intraperitoneally with Escherichia coli, survival on the 4th day; conditions: 96 h, survivors on 4th day, by interpolation, read-out: CD50 (dosage at which 50% of the mice survive)
Procedure: Groups of 5 mice are infected intraperitoneally with an aqueous suspension of Escherichia coli. The derivative to be tested is administered orally or subcutaneously 1, 2.5 and 4 hours after the infection. The number of surviving mice is determined on the 4th day. Various dosages of the derivative are administered and the dosage at which 50% of the mice survive (CD50, mg/kg) is determined by interpolation.

[2] = oral, 1, 2.5 and 4 hours after intraperitoneal infection
[3] = sc, subcutaneous, 1, 2.5 and 4 hours after intraperitoneal infection

Row | Compound | LD50 at 24 h [1] [mg/kg] | ED50 (Escherichia coli; [2]) [mg/kg] | ED50 (Escherichia coli; [3]) [mg/kg]
1 | CON=C(C(=O)NC1C(=O)N2C(C(=O)OCOC(=O)C(C)(C)C)=C(CSc3n[nH]c(=O)c(=O)n3C)CSC12)c1ccco1 [Derivative A, Methylene-(6R,7R)-7-[2-(2-furyl)-2-(methoxyimino)-acetamido]-8-oxo-3-[[(1,4,5,6-tetrahydro-4-methyl-5,6-dioxo-as-triazin-3-yl)thio]methyl]-5-thia-1-azabicyclo-[4.2.0]oct-2-ene-2-carboxylate pivalate (Z-isomer)] | 2500 to 5000 | 0.05 | 0.02
2 | CON=C(C(=O)NC1C(=O)N2C(C(=O)OCOC(=O)C(C)(C)C)=C(CSc3nc(=O)c(OCOC(=O)C(C)(C)C)nn3C)CSC12)c1ccco1 [Derivative B, Methylene-(6R,7R)-3-{[[2,5-dihydro-2-methyl-5-oxo-6-[(pivaloyloxy)methoxy]-as-triazin-3-yl]thio]methyl}-7-[2-(2-furyl)-2-(methoxyimino)acetamido]-8-oxo-5-thia-1-azabicyclo[4.2.0]oct-2-ene-2-carboxylate pivalate (Z-isomer)] | 1250 to 2500 | 0.03 | 0.02
